In US10323001B2, “Compositions for modulating a kinase cascade and methods of use thereof” (Athenex, Inc., priority 2006, dated 2019):

Legend:
[1] = Threshold solubility of salt screen 96 well plate; conditions: DI water
Procedure: Following each addition, the plate was shaken to encourage mixing for at least 5 minutes prior to evaluation.

[2] = Solubility in DI water and pH 2.0 phosphate buffer; type: physicochemical; conditions: for pH of solubility sample: * approximate, pH paper instead of meter
Procedure: The table below summarizes additional characterization data for the fumaric and maleate KX2-391.MSA salts and compares it to free base, bis-HCl, and MSA salts described above. The results in the table below were obtained using the procedures described above in Examples 5 (XRPD), 6 (DSC), 7 (TGA), and 8 (moisture-sorption).
Solubility experiments were also performed using pH 2.0 phosphate buffer and DI water pH 6.9 and KX2-391.MSA, Form A. Each vial was filled with approximately 50 mg of KX2-391.MSA, Form A and 100 μL aliquots of the corresponding solvent was added until complete dissolution was observed, followed by stirring at room temperature for one and five days. The solids obtained were isolated by filtration, dried under vacuum at room temperature and analyzed by HPLC. The initial HPLC purity of KX2-391.MSA, Form A was 99.4 (% area). The solubility by HPLC of KX2-391.MSA, Form A in phosphate buffer/RT was >500 mg/mL and HPLC purity was measured to be 99.4. The solubility by HPLC of KX2-391.MSA, Form A in DI H2O/RT was >500 mg/mL and HPLC purity was measured to be 99.4.

[3] = 5 mg/mL DI water dissolution experiment; type: physicochemical; parameters: key to dissolution state: P—Particulates partially dissolved; D—Particulates fully dissolved
Procedure: Dissolution experiments were performed on KX2-391 salts to provide a better understanding of the salts interaction in water. This was accomplished using a 5 mg/mL DI water dissolution experiment where 5 mg of each salt was weighed into a vial and 1 mL of DI wather was added. The solution was monitored visually with magnetic stirring over a 20 minute time period to observe the time of dissolution.

[4] = Moisture-sorption analysis (Hiden IGAsorp); type: physicochemical; conditions: 90% RH, 25° C.
Procedure: Moisture-sorption experiments were performed using a Hiden IGAsorp Moisture Sorption instrument on KX2-391.MSA obtained in accordance with the process of the present invention (Example 4). First, the sample was dried at 0% Relative Humidity (RH) and 25° C. until an equilibrium weight was reached or for a maximum of four hours. The sample was then subjected to an isothermal (25° C.) adsorption scan from 10 to 90% RH in steps of 10%. The sample was allowed to equilibrate to an asymptotic weight at each point for a maximum of four hours. Following adsorption, a desorption scan from 85 to 0% RH (at 25° C.) was run in steps of −10% again allowing a maximum of four hours for equilibration to an asymptotic weight. The sample was then dried for one hour at 80° C. and the resulting solid analyzed by XRPD. […] FIG. 10 depicts percent change of water content as a function of relative humidity for KX2-391.MSA, Form A.
Moisture-sorption experiments were performed using a Hiden IGAsorp Moisture Sorption Instrument on KX2-391.2HCl obtained in accordance with the process of the present invention (Example 3). First, the sample was dried at 0% Relative Humidity (RH) and 25° C. until an equilibrium weight was reached or for a maximum of four hours. The sample was then subjected to an isothermal (25° C.) adsorption scan from 10 to 90% RH in steps of 10%. The sample was allowed to equilibrate to an asymptotic weight at each point for a maximum of four hours. Following adsorption, a desorption scan from 85 to 0% RH (at 25° C.) was run in steps of −10% again allowing a maximum of four hours for equilibration to an asymptotic weight. The sample was then dried for one hour at 80° C. and the resulting solid analyzed by XRPD.

[5] = salt screen well: 1 Equivalent of Acid, Dioxane
[6] = salt screen well: 1 Equivalent of Acid, ACN
[7] = salt screen well: 1 Equivalent of Acid, Acetone
[8] = salt screen well: 1 Equivalent of Acid, EtOH
[9] = salt screen well: 1 Equivalent of Acid, IPA
[10] = salt screen well: 1 Equivalent of Acid, THF

O=C(O)CC(O)C(=O)O (stereo not drawn) [Malic]
Threshold solubility rank [1, 5]: 1

Cc1ccc(S(=O)(=O)O)cc1.O=C(Cc1ccc(-c2ccc(OCCN3CCOCC3)cc2)cn1)NCc1ccccc1 [p-TSA]
Threshold solubility rank [1, 6]: 5 | Threshold solubility rank [1, 7]: 5 | Threshold solubility rank [1, 5]: 5 | Threshold solubility rank [1, 8]: 5 | Threshold solubility rank [1, 9]: 5 | Threshold solubility rank [1, 10]: 5

Maleate
Threshold solubility rank [1, 6]: N | Threshold solubility rank [1, 7]: N | Threshold solubility rank [1, 5]: N | Threshold solubility rank [1, 8]: N | Threshold solubility rank [1, 9]: N | Threshold solubility rank [1, 10]: N | Threshold solubility rank ([1]; salt screen well: 2 Equivalents of Acid, Acetone): 1 | Threshold solubility rank ([1]; salt screen well: 2 Equivalents of Acid, Dioxane): 1 | Threshold solubility rank ([1]; salt screen well: 2 Equivalents of Acid, THF): 1 | Solubility mg/mL ([2]; DI H2O): DI H20: 7.3 mg/mL | pH of solubility sample ([2]; DI H2O): (4.5*) | Solubility mg/mL ([2]; pH 2): pH 2: 21.2 mg/mL | pH of solubility sample ([2]; pH 2 medium): (4.5*) | dissolution in 5 mg/mL DI water experiment ([3]; 5 mg in 1 mL DI water, magnetic stirring): not observed to dissolve solids within 10 minutes | dissolution state ([3]; about 5 mg in 1 mL DI water, magnetic stirring, 0 s): P | dissolution state ([3]; about 5 mg in 1 mL DI water, magnetic stirring, 30 s): P | dissolution state ([3]; about 5 mg in 1 mL DI water, magnetic stirring, 1 min): P | dissolution state ([3]; about 5 mg in 1 mL DI water, magnetic stirring, 2 min): P | dissolution state ([3]; about 5 mg in 1 mL DI water, magnetic stirring, 5 min): P | dissolution state ([3]; about 5 mg in 1 mL DI water, magnetic stirring, 10 min (1 mL DI water added)): P | dissolution state ([3]; about 5 mg, after additional 1 mL DI water, 15 min): P | dissolution state ([3]; about 5 mg, after additional 1 mL DI water, 20 min): P | Moisture Sorption Wt % Water @ 90% RH [4]: 1.4 wt %
